Reference: US20150158914A1, “PEPTIDES, CONSTRUCTS AND USES THEREFOR” (priority 2010, published 2015)
Ends that are not written are not given here. * marks the point of attachment. FITC = O=C1OC2(c3ccc(O)cc3Oc3cc(O)ccc32)c2ccc(NC(=S)*)cc21

Tests used:
[1] = tested on: nonadherent peripheral blood mononuclear cells; assay: Peptide uptake by nonadherent buffy coat cells; type: cell-based, human; conditions: 3 h, RPMI without FCS
Method: (§1) To determine whether this was a general feature of nonadherent cells, the ability of the peptide to enter non-adherent human peripheral blood mononuclear cells was examined. A buffy coat containing monocytes, lymphocytes, and platelets was isolated from 10 ml of human blood and incubated in 8-chamber slides for 3 h with the cell-permeable peptide aa 16-22 in RPMI medium without FCS.

[2] = tested on: nonadherent erythrocytes and platelets; assay: Peptide uptake in whole blood; type: cell-based; conditions: whole blood in 10 mM citrate buffer, 3 h
Method: Whole blood was incubated with the fluoresceinated X-protein cell-permeable peptide aa 16-22 for 3 h to determine whether erythrocytes and platelets are able to take up the peptide. Blood was collected from a finger prick and suspended in 10 mM citrate buffer to prevent the blood clotting. After incubation with peptide the cells were washed in PBS and a blood smear prepared on a glass slide. The cells were stained with Diff-Quik.

[3] = tested on: adherent monocytes and platelets; assay: Peptide uptake by adherent buffy coat cells; type: cell-based, human; conditions: 3 h, cells adhered to 8-chamber slides
Method: as §1

[4] = tested on: nonadherent cell line TK1; assay: Peptide uptake by suspension cell line; type: cell-based; conditions: TK1 in suspension, 3 h; listed as X-protein cell-permeable peptide aa 16-22
Method: The cells were then incubated overnight at 37° and 5% CO2, and then washed thrice with media without FCS. The X-protein peptide in 250 μl of appropriate media without FCS was added to the cells at a final concentration of 10 μM, and the slides incubated for 3 h at 37° C. and 5% CO2. The cells were washed with PBS, fixed with 4% formaldahyde in PBS for 30 min, and washed thrice with PBS. […] The slides were dried overnight in the dark, and examined by microscopy by using a Nikon E600 fluorescent microscope. Photos were taken using Nikon ACT-1 software. For further examination, slides were then examined by confocal microscopy using a Leica TCS-SP2 confocal microscope.
The X-protein cell-permeable peptide aa 16-22 was tested for its ability to be taken up by other mammalian cell lines including the human C32 melanoma, DU145 prostate carcinoma, TK1 T cell lymphoma, H441 lung carcinoma, Rin-m5f rat pancreatic islet tumor and Cos-1/7 green monkey kidney cell lines. TK1 cells are suspension cells whereas all other cell lines are adherent cells. Cells were incubated with the fluoresceinated X-protein cell-permeable peptide 16-22 for 3 h in medium appropriate for that cell line in the absence of FCS. The HepG2 cell line was used as a positive control. The X-protein peptide was able enter all adherent cell lines regardless of type or source of the cell (FIGS. 22 and 23).

[5] = listed as X-protein cell-permeable peptide 16-22
[6] = listed as cell-permeable peptide aa 16-22

“FITC-LCLRPVG ({FITC}-LCLRPVG) [Peptide 16-22]” was tested, and the “uptake by nonadherent buffy coat cells” value [1, 5] was “unable to enter”, the “uptake by nonadherent buffy coat cells” value [1, 6] was “did not take up the peptide” and the “uptake by erythrocytes and platelets” value [2, 5] was “does not enter”. For the same substance, the “uptake by erythrocytes and platelets” value ([2]; listed as X-protein cell-permeable peptide aa 16-22) was “None of the cell types present”, the “uptake by adherent monocytes and platelets” value [3, 5] was “able to enter adherent monocytes, and potentially adherent platelets” and the “uptake by adherent monocytes and platelets” value [3, 6] was “had taken up the peptide”. For the same substance, the entry into cells [4] was “completely unable to enter”.
